Values of other authors in patent publication US8962668B2, “Treatment of length dependent neuropathy” (Arcion Therapeutics, Inc., priority 2005, dated 2015).

Test system: patients with painful diabetic neuropathy

Clc1cccc(Cl)c1N=C1NCCN1 [clonidine]
difference between clonidine transdermal patches and placebo patches (placebo-controlled cross-over pain trial (Zeigler et al.)): no statistically significant difference
pain reduction relative to placebo (responders rechallenged, highest transdermal patch dosage, p<0.015): modest although statistically significant
clonidine responders (transdermal patches, twelve of forty-one patients who completed initial course (Byas-Smith et al.)): 29%
